Here are results for 6 compounds from patent US3996344A, “Phenethylamine antigenic conjugates, their preparation, antibodies and use” (Biological Developments, Inc., priority 1974, dated 1976).

For the test, the system named is antiserum (antibody raised in rabbits to the antigen of Example I, N-TFA-p-aminoamphetamine coupled to BSA). The experiment in a line: Radioimmune assay for amphetamine: competitive inhibition of 3H-d-amphetamine binding to, and cross-reactivity of, antiserum raised to the antigen of Example I. Particulars: for Percent Cross-Reactivity: method of Abraham, relative quantity that produces 50% inhibition x 100, d-amphetamine = 100; for Percent Inhibition of Binding 3H-d-amphetamine: 3H-d-amphetamine 137 picograms, 2 hours, 4° C.

Take `NCCc1ccc(O)cc1` [tyramine]: the “Percent Cross-Reactivity” value is recorded as 3.4%.

With `COc1cc(C(O)CN)ccc1O` (stereo not shown) [normetanephrine], the “Percent Cross-Reactivity” value is given as less than 0.0125%.

With `C[C@H](N)Cc1ccccc1` [d-amphetamine], the “Percent Cross-Reactivity” value is given as 100%. Further, the “Percent Inhibition of Binding 3H-d-amphetamine” value (“Percent Inhibition” for short) (250 picograms of unlabeled amphetamine) turned out to be 12%. The “Percent Inhibition” value (500 picograms of unlabeled amphetamine) is listed as 22%. For the setting “1,000 picograms of unlabeled amphetamine”, the “Percent Inhibition” value is reported as 33.5%. Moreover, the “Percent Inhibition” value (10,000 picograms of unlabeled amphetamine) amounted to 83.0%.

Regarding `C[C@@H](N)Cc1ccccc1` [1-amphetamine], the “Percent Cross-Reactivity” value is 1.45%.

Consider `CN[C@@H](C)Cc1ccccc1` [methadrine], for which the “Percent Cross-Reactivity” value is on record as 0.45%.

Regarding `CNCC(O)c1ccc(O)c(OC)c1` (stereo not shown) [metanephrine], the “Percent Cross-Reactivity” value is reported as less than 0.0125%.
